The results in this text go back to patent US7964560B2, “Hepatitis C virus inhibitors” (Bristol-Myers Squibb Company, priority 2008, dated 2011).

Like-named read-outs stand apart in the source and are kept apart here.

In assay [1] the target is T1, HCV NS3/4A protease complex, BMS strain (UniProt P27958, species not given/STRAIN_BMS).
T1 construct: said of H77 and J4L6S; fused on or other part: three-lysine solubilising tail at the end of NS4A (printed for the H77 and J4L6S constructs; probably the same for BMS)
The experiment in a line: FRET peptide assay to monitor HCV NS3/4A proteolytic activity (BMS strain). The assay is classed as biochemical, Hepatitis C virus (genotype 1a). The settings on record: Table 2, NS3/4A BMS strain. From the text: HCV […] protease complexes, derived from the BMS strain, H77 strain or J4L6S strain, were generated, as described below. These purified recombinant proteins were generated for use in a homogeneous assay (see below) to provide an indication of how effective compounds of the present disclosure would be in inhibiting HCV NS3 proteolytic activity.
Serum from an HCV-infected patient was obtained from Dr. T. Wright, San Francisco Hospital. An engineered full-length cDNA (compliment deoxyribonucleic acid) template of the HCV genome (BMS strain) was constructed from DNA fragments obtained by reverse transcription-PCR (RT-PCR) of serum RNA (ribonucleic acid) and using primers selected on the basis of homology between other genotype 1a strains. From the determination of the entire genome sequence, a genotype 1a was assigned to the HCV isolate according to the classification of Simmonds et al. (See Simmonds, P. et al., J. Clin. Microbiol., 31(6), 1493-1503 (1993)). […] The infectious clones, H77 (1a genotype) and J4L6S (1b genotype) were obtained from R. Purcell (NIH) and the sequences are published in GENBANK® (AAB67036, see Yanagi, M. et al., Proc. Natl. Acad. Sci. U.S.A., 94(16):8738-8743 (1997); AF054247, see Yanagi, M. et al., Virology, 244(1):161-172 (1998)).
The H77 and J4L6S strains were used for production of recombinant NS3/4A protease complexes. DNA encoding the recombinant HCV NS3/4A protease complex (amino acids 1027 to 1711) for these strains were manipulated as described by P. Gallinari et al. (see Gallinari, P. et al, Biochemistry, 38(17):5620-5632 (1999)). Briefly, a three-lysine solubilizing tail was added at the 3′-end of the NS4A coding region. The cysteine in the P1 position of the NS4A-NS4B cleavage site (amino acid 1711) was changed to a glycine to avoid the proteolytic cleavage of the lysine tag. Furthermore, a cysteine to serine mutation was introduced by PCR at amino acid position 1454 to prevent the autolytic cleavage in the NS3 helicase domain. The variant DNA fragment was cloned in the pET21b bacterial expression vector (Novagen) and the NS3/4A complex was expressed in Escherichia. coli strain BL21 (DE3) (Invitrogen) following the protocol described by P. Gallinari et al. (see Gallinari, P. et al., J. Virol., 72(8):6758-6769 (1998)) with modifications. Briefly, the NS3/4A protease complex expression was induced with 0.5 millimolar (mM) Isopropyl β-D-1-thiogalactopyranoside (IPTG) for 22 hours (h) at 20° C. A typical fermentation (1 Liter (L)) yielded approximately 10 grams (g) of wet cell paste. The cells were resuspended in lysis buffer (10 mL/g) consisting of 25 mM N-(2-hydroxyethyl)piperazine-N′-(2-ethane sulfonic acid) (HEPES), pH 7.5, 20% glycerol, 500 mM sodium chloride (NaCl), 0.5% Triton X-100, 1 microgram/milliliter (“μg/mL”) lysozyme, 5 mM magnesium chloride (MgCl2), 1 μg/ml DnaseI, 5 mM β-mercaptoethanol (βME), protease inhibitor-ethylenediamine tetraacetic acid (EDTA) free (Roche), homogenized and incubated for 20 minutes (min) at 4° C. The homogenate was sonicated and clarified by ultra-centrifugation at 235000 g for 1 hour (h) at 4° C. Imidazole was added to the supernatant to a final concentration of 15 mM and the pH adjusted to 8.0. The crude protein extract was loaded on a Nickel-Nitrilotriacetic acid (Ni-NTA) column pre-equilibrated with buffer B (25 mM HEPES, pH 8.0, 20% glycerol, 500 mM NaCl, 0.5% Triton X-100, 15 mM imidazole, 5 mM βME). The sample was loaded at a flow rate of 1 mL/min. The column was washed with 15 column volumes of buffer C (same as buffer B except with 0.2% Triton X-100). The protein was eluted with 5 column volumes of buffer D (same as buffer C except with 200 mM Imidazole).
NS3/4A protease complex-containing fractions were pooled and loaded on a desalting column Superdex-S200 pre-equilibrated with buffer D (25 mM HEPES, pH 7.5, 20% glycerol, 300 mM NaCl, 0.2% Triton X-100, 10 mM βME). Sample was loaded at a flow rate of 1 mL/min. […]

In assay [2] the test system is HCV replicon in HUH-7 cells. The experiment in a line: HCV replicon FRET assay. The format is cell-based, Hepatitis C virus (strain 1b). The settings on record: Hepatitis C virus, Huh-7, Table 2, HCV replicon, replicon assay format not stated, read-out: EC50. From the text: An HCV replicon whole cell system was established as described by Lohmann, V. et al., Science, 285(5424):110-113 (1999). This system enabled us to evaluate the effects of our HCV Protease compounds on HCV RNA replication. Briefly, using the HCV strain 1b sequence described in the Lohmann paper (Accession number: AJ238799), an HCV cDNA was synthesized by Operon Technologies, Inc. (Alameda, Calif.), and the full-length replicon was then assembled in plasmid pGem9zf(+) (Promega, Madison, Wis.) using standard molecular biology techniques. The replicon consists of (i) the HCV 5′ UTR fused to the first 12 amino acids of the capsid protein, (ii) the neomycin phosphotransferase gene (neo), (iii) the IRES from encephalomyocarditis virus (EMCV), and (iv) HCV NS3 to NS5B genes and the HCV 3′ UTR. Plasmid DNAs were linearized with ScaI and RNA transcripts were synthesized in vitro using the T7 MegaScript transcription kit (Ambion, Austin, Tex.) according to manufacturer's directions. In vitro transcripts of the cDNA were transfected into the human hepatoma cell line, HUH-7. […] Resulting cell lines were characterized for positive and negative strand RNA production and protein production over time.
The HCV replicon FRET assay was developed to monitor the inhibitory effects of compounds described in the disclosure on HCV viral replication. HUH-7 cells, constitutively expressing the HCV replicon, were grown in Dulbecco's Modified Eagle Media (DMEM) (Gibco-BRL) containing 10% Fetal calf serum (FCS) (Sigma) and 1 mg/ml G418 (Gibco-BRL). Cells were seeded the night before (1.5×10^4 cells/well) in 96-well tissue-culture sterile plates. Compound and no compound controls were prepared in DMEM containing 4% FCS, 1:100 Penicillin/Streptomysin (Gibco-BRL), 1:100 L-glutamine and 5% DMSO in the dilution plate (0.5% DMSO final concentration in the assay). Compound/DMSO mixes were added to the cells and incubated for 4 days at 37° C. After 4 days, cells were first assessed for cytotoxicity using alamar Blue (Trek Diagnostic Systems) for a CC50 reading. The toxicity of compound (CC50) was determined by adding 1/10th volume of alamar Blue to the media incubating the cells. After 4 h, the fluorescence signal from each well was read, with an excitation wavelength at 530 nm and an emission wavelength of 580 nm, using the CYTOFLUOR® Series 4000 (Perspective Biosystems). Plates were then rinsed thoroughly with Phosphate-Buffered Saline (PBS) (3 times 150 μl). The cells were lysed with 25 μl of a lysis assay reagent containing an HCV protease substrate (5× cell Luciferase cell culture lysis reagent (PROMEGA® #E153A) diluted to 1× with distilled water, NaCl added to 150 mM final, the FRET peptide substrate (as described for the enzyme assay above) diluted to 10 μM final from a 2 mM stock in 100% DMSO. The plate was then placed into the CYTOFLUOR® 4000 instrument which had been set to 340 nm excitation/490 nm emission, automatic mode for 21 cycles and the plate read in a kinetic mode. EC50 determinations were carried out as described for the IC50 determinations.

T1 sequence (P27958 1027-1657, change not shown, one chain of several): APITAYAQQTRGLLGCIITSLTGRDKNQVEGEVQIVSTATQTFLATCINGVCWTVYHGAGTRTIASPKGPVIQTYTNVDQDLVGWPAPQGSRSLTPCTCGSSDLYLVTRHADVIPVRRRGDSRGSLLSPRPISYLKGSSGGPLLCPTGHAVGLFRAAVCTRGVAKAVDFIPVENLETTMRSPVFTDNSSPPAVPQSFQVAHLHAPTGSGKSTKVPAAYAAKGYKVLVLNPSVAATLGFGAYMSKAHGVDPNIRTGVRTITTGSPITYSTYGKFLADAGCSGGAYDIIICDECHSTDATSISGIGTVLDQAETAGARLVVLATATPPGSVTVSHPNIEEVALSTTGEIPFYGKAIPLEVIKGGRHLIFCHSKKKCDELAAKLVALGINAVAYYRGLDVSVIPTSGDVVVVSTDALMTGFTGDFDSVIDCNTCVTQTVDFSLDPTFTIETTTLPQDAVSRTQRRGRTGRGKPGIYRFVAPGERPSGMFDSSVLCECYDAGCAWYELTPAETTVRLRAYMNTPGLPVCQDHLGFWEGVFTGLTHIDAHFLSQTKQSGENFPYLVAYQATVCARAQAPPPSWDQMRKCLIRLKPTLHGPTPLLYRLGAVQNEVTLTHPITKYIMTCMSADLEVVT

As a reminder, the IC50 is the concentration that inhibits the measured activity by half. Read a low IC50 as greater potency. Broadly, the EC50 is the concentration giving half of the maximal effect. With `C=C[C@@H]1C[C@]1(NC(=O)[C@@H]1C[C@](c2ccc(-c3ccccc3)cc2)([S+]([O-])CCCC)CN1C(=O)[C@@H](NC(=O)OC(C)(C)C)C(C)(C)C)C(=O)NS(=O)(=O)C1CC1` (single isomer, unassigned) [Example 2], the IC50 in assay [1] (activity range) was in the range of 1 to 20 nM. Further, the EC50 in assay [2] (activity range) is 6 to 100 nM.
In turn, `C=C[C@@H]1C[C@]1(NC(=O)[C@@H]1C[C@](c2ccc(-c3ccccc3)cc2)(S(=O)(=O)CCCC)CN1C(=O)[C@@H](NC(=O)OC(C)(C)C)C(C)(C)C)C(=O)NS(=O)(=O)C1CC1` (single isomer, unassigned) [Example 3] gave an IC50 in assay [1] (numeric values) of 1 nM. Further, the EC50 in assay [2] (numeric values) was determined as 6.6 nM.
Regarding `CCCCS[C@@]1(c2ccc(-c3ccccc3)cc2)C[C@@H](C(=O)N[C@]2(C(=O)NS(=O)(=O)C3CC3)C[C@H]2CC(F)F)N(C(=O)[C@@H](NC(=O)OC(C)(C)C)C(C)(C)C)C1` [Example 4, tert-butyl (S)-1-((2S,4R)-4-(biphenyl-4-yl)-4-(butylthio)-2-((1R,2S)-1-(cyclopropylsulfonylcarbamoyl)-2-(2,2-difluoroethyl)cyclopropylcarbamoyl)pyrrolidin-1-yl)-3,3-dimethyl-1-oxobutan-2-ylcarbamate], the IC50 in assay [1] (activity range) is 1 to 20 nM. Besides, in assay [2] (activity range), the EC50 fell in the range of 6 to 100 nM.
For `CCCCS[C@@]1(c2ccc(-c3ccccc3)cc2)C[C@@H](C(=O)N[C@]2(C(=O)NS(=O)(=O)C3CC3)C[C@H]2C2CC2)N(C(=O)[C@@H](NC(=O)OC(C)(C)C)C(C)(C)C)C1` [Example 5, tert-butyl (S)-1-((2S,4R)-4-(biphenyl-4-yl)-4-(butylthio)-2-((1S,2R)-2-(cyclopropylsulfonylcarbamoyl)bi(cyclopropan)-2-ylcarbamoyl)pyrrolidin-1-yl)-3,3-dimethyl-1-oxobutan-2-ylcarbamate], in assay [1] (activity range), the IC50 fell in the range of 1 to 20 nM. The EC50 in assay [2] (activity range) lay in the range of 6 to 100 nM.
Turning to `CCCCS[C@@]1(c2ccc(-c3ccccc3)cc2)C[C@@H](C(=O)N[C@]2(C(=O)NS(=O)(=O)C3CC3)C[C@H]2C(F)F)N(C(=O)[C@@H](NC(=O)OC(C)(C)C)C(C)(C)C)C1` [Example 6, tert-butyl (S)-1-((2S,4R)-4-(biphenyl-4-yl)-4-(butylthio)-2-((1R,2R)-1-(cyclopropylsulfonylcarbamoyl)-2-(difluoromethyl)cyclopropylcarbamoyl)pyrrolidin-1-yl)-3,3-dimethyl-1-oxobutan-2-ylcarbamate], it took 2 nM to reach half-maximal inhibition in assay [1] (numeric values) (IC50). For the same compound, in assay [2] (numeric values), the EC50 was 18 to 36 nM.
Compound `CCCCS[C@@]1(c2ccc(-c3ccccc3)cc2)C[C@@H](C(=O)N[C@]2(C(=O)NS(=O)(=O)C3CC3)C[C@H]2C=C(F)F)N(C(=O)[C@@H](NC(=O)OC(C)(C)C)C(C)(C)C)C1` [Example 7, tert-butyl (S)-1-((2S,4R)-4-(biphenyl-4-yl)-4-(butylthio)-2-((1R,2S)-1-(cyclopropylsulfonylcarbamoyl)-2-(2,2-difluorovinyl)cyclopropylcarbamoyl)pyrrolidin-1-yl)-3,3-dimethyl-1-oxobutan-2-ylcarbamate] registered an IC50 in assay [1] (activity range) of 1 to 20 nM. Also, the EC50 in assay [2] (activity range) lay in the range of 6 to 100 nM.
In the same order, the values of `C=C[C@@H]1C[C@]1(NC(=O)[C@@H]1C[C@@](SC)(c2ccc(-c3ccccc3)cc2)CN1C(=O)[C@@H](NC(=O)OC(C)(C)C)C(C)(C)C)C(=O)NS(=O)(=O)C1CC1` [Example 8, tert-butyl (S)-1-((2S,4R)-4-(biphenyl-4-yl)-2-((1R,2S)-1-(cyclopropylsulfonylcarbamoyl)-2-vinylcyclopropylcarbamoyl)-4-(methylthio)pyrrolidin-1-yl)-3,3-dimethyl-1-oxobutan-2-ylcarbamate] are 1 to 20 nM and 6 to 100 nM.
Taken in the same sequence, the figures for `C=C[C@@H]1C[C@]1(NC(=O)[C@@H]1C[C@@](SC(C)C)(c2ccc(-c3ccccc3)cc2)CN1C(=O)[C@@H](NC(=O)OC(C)(C)C)C(C)(C)C)C(=O)NS(=O)(=O)C1CC1` [Example 9, tert-butyl (S)-1-((2S,4R)-4-(biphenyl-4-yl)-2-((1R,2S)-1-(cyclopropylsulfonylcarbamoyl)-2-vinylcyclopropylcarbamoyl)-4-(isopropylthio)pyrrolidin-1-yl)-3,3-dimethyl-1-oxobutan-2-ylcarbamate] were 1 to 20 nM and 6 to 100 nM.
`C=C[C@@H]1C[C@]1(NC(=O)[C@@H]1C[C@@](SC(C)C)(c2ccc(-c3ccccc3)cc2)CN1C(=O)[C@@H](NC(=O)OC(C)(C)C(F)(F)F)C(C)(C)C)C(=O)NS(=O)(=O)C1CC1` [Example 10, 1,1,1-trifluoro-2-methylpropan-2-yl (S)-1-((2S,4R)-4-(biphenyl-4-yl)-2-((1R,2S)-1-(cyclopropylsulfonylcarbamoyl)-2-vinylcyclopropylcarbamoyl)-4-(isopropylthio)pyrrolidin-1-yl)-3,3-dimethyl-1-oxobutan-2-ylcarbamate] came in with an IC50 in assay [1] (activity range) of 1 to 20 nM. Also, the EC50 in assay [2] (activity range) was 6 to 100 nM.
